# Source: patent US6624162B2, “Imidazopyridine compounds as 5-HT4 receptor modulators” (Pfizer Inc., priority 2001, dated 2003)
# Target: T1, 5-HT4 receptors (Rattus norvegicus, UniProt Q62758)
# T1 construct: The remaining inner tube of smooth muscle was known as the TMM; from tissue; host or cells: rat oesophagus tunica muscularis mucosae (TMM), male SD rats (Charles River)
# Assay: Functional assay: rat oesophagus TMM relaxation
# Conditions: carbachol-contracted rat oesophagus TMM, 1 μM antagonist
# Excerpt: More specifically, partial agonist activity can be measured according to the following procedures.
# Male SD rats (Charles River) weighing 250-350 g were stunned and then killed by cervical dislocation. The oesophagus was dissected from immediately proximal to the stomach (including piece of stomach to mark distal end) up to the level of the trachea and then placed in fresh Krebs' solution.
# The outer skeletal muscle layer was removed in one go by peeling it away from the underlying smooth muscle layer using forceps (stomach to tracheal direction). The remaining inner tube of smooth muscle was known as the TMM. This was trimmed to 2 cm from the original ‘stomach-end’ and the rest discarded.
# The TMMs were mounted as whole ‘open’ tubes in longitudinal orientation in 5 ml organ baths filled with warm (32° C.) aerated Krebs. Tissues were placed under an initial tension of 750 mg and allowed to equilibrate for 60 minutes. The tissues were re-tensioned twice at 15 minute intervals during the equilibration period. The pump flow rate was set to 2 ml/min during this time.
# Following equilibration, the pump was switched off. The tissues were exposed to 1 μM carbachol and contracted and reached a steady contractile plateau within 15 minutes. Tissues were then subject to 1 μM 5-HT (this was to prime the tissues). The tissues relaxed in response to 5-HT fairly rapidly—within 1 minute. […]
# T1 sequence (Q62758 whole entry): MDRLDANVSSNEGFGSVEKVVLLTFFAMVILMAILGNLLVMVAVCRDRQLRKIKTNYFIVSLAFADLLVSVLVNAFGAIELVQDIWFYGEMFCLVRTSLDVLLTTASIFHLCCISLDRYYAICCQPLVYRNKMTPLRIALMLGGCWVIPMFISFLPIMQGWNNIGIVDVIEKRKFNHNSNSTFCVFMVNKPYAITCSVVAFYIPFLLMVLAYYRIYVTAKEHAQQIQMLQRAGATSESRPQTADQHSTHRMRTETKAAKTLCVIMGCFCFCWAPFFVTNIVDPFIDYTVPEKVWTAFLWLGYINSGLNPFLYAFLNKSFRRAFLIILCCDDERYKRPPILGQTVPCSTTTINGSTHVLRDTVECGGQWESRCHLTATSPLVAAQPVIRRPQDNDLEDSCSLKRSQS
row,Structure (SMILES),reversal of 5-HT induced relaxation
1,"O=C(OCCN1CCCCC1)c1c[nH]c2ccccc12 [SB 203,186, 1H-Indole-3-carboxylic acid, 2-(1-piperidinyl)ethyl ester]",reversed 5-HT induced relaxation

# System: not given
# Assay: not given
# Conditions: not given
row,Structure (SMILES),melting point [°C]
1,CCCc1cn2c(N)ccc(C(=O)NC3CCN(CCCOC)CC3)c2n1.Cl,238
2,CCc1cn2c(N)c(Cl)cc(C(=O)NCC3CCN(CCC(C)(C)C)CC3)c2n1,234
3,CCCCN1CCC(CNC(=O)c2cc(Cl)c(N)n3cc(C)nc23)CC1,188 to 191
4,Cc1cn2c(N)c(Cl)cc(C(=O)NCC3CCN(CC(C)C)CC3)c2n1,216 to 219
5,CCCCN1CCC(CNC(=O)c2ccc(N)n3cc(C(C)C)nc23)CC1,138
6,CCCCN1CCC(CNC(=O)c2ccc(N)n3cc(Cl)nc23)CC1,113
7,CCCCN1CCC(CNC(=O)c2cc(Cl)c(N)n3cc(-c4ccccc4)nc23)CC1.Cl,263
8,CCCCN1CCC(CNC(=O)c2cc(Cl)c(NC)n3ccnc23)CC1,148
9,CCCCN1CCC(CNC(=O)c2ccc(N)n3cc(-c4ccccc4)nc23)CC1,221
10,CCCCN1CCC(CNC(=O)c2cc(Cl)c(N)n3cc(C(C)C)nc23)CC1,168
11,CCc1cn2c(N)c(Cl)cc(C(=O)NCC3CCN(CC(C)(C)OC)CC3)c2n1,211
12,CCc1cn2c(N)c(Cl)cc(C(=O)NC3CCN(CCCOC)CC3)c2n1,179
13,CNc1c(Cl)cc(C(=O)NCC2CCN(CCCOC)CC2)c2nccn12,125
14,CCCc1cn2c(N)c(Cl)cc(C(=O)NC3CCN(CCCOC)CC3)c2n1.Cl,243
15,CCc1cn2c(N)c(Cl)cc(C(=O)NCC3CCNCC3)c2n1,153
16,CCCCN1CCC(CNC(=O)c2ccc(N)n3cc(CCC)nc23)CC1,172
17,COCCCN1CCC(CNC(=O)c2cc(Cl)c(N)n3cc(C)nc23)CC1,167
18,CCCCN1CCC(CNC(=O)c2ccc(N)n3cc(CC)nc23)CC1,139 to 145
19,COC(C)(C)CN1CCC(CNC(=O)c2cc(Cl)c(N)n3cc(C)nc23)CC1,211
